# Read-outs that look alike come from different tables or passages of the source.
# How the values were obtained:
# Assay type in all cases: cell-based
# [1] = system: human small cell lung cancer cell line NCI-H82; assay: Test 2 of anti-proliferative activity against tumor cells (Cell-Titer Glo); conditions: Homo sapiens, NCI-H82, 120 h, read-out: NCI-H82 Anti-proliferative activity IC50 (nM), NCI-H82 cells, 5 days, Cell-Titer Glo
# Procedure: (§1) Cell culture: SK-OV-3 cells were cultured in McCoy's 5a medium containing 10% fetal bovine serum+1% penicillin-streptomycin, PA-1 cells were cultured in MEM medium containing 10% fetal bovine serum+1% MEM NEAA+1% sodium pyruvate+1% penicillin-streptomycin, NCI-H82 cells and MDA-MB-231 cells were cultured in 1640 medium containing 10% fetal bovine serum+1% penicillin-streptomycin, A549 cells were cultured in DMEM medium containing 10% fetal bovine serum+1% penicillin-streptomycin, all under conditions of 37° C. and 5% CO2. Cells in logarithmic growth phase were suitable for the experiment.
# (§2) Detection of cell proliferation activity: The inhibitory activity of the compounds on the proliferation of the five cell lines SK-OV-3, PA-1, NCI-H82, MDA-MB-231 and A549 was detected using Cell-Titer Glo reagent. SK-OV-3 cell (1000 cells per well), PA-1 cells (800 cells per well), NCI-H82 cells (5000 cells per well), MDA-MB-231 cells (3000 cells per well) and A549 cells (400 cells per well) were seeded in 96-well plates and cultured at 37° C. and 5% CO2 for 24 h. The compound to be tested was dissolved in DMSO to a concentration of 1 mM, then subjected to gradient dilution with DMSO and corresponding medium, and transferred to 96-well cell plates to a final concentration of 300 nM (initial concentration), with 3-fold dilution and a total of 9 concentration points. The cells were cultured at 37° C. and 5% CO2 for additional 5 days. The cell viability was detected by adding Cell-Titer Glo reagent.
# (§3) Additionally, a negative control group and a positive control group were provided as Bottom and Top, respectively. In the negative control group, the cells were not added, only the same volume of medium was added, and other operations were consistent with those in the experimental group; in the positive control group, the test compound was not added, only the same volume of DMSO was added, and other operations were consistent with those in the experimental group.
# (§4) Data analysis: The % compound inhibition was calculated, and fitting was performed to obtain IC50 of the compound.
# (§5) % Compound inhibition=1−100%*(Signal−Bottom)/(Top−Bottom).
# (§6) Signal represents the signal value of the experimental group, Bottom represents the average signal value of the negative control group, and Top represents the average signal value of the positive control group.
# [2] = system: Human ovarian cancer cell line SK-OV-3; assay: as above
# Procedure: as §1, §2, §3, §4, §5, §6
# [3] = system: human breast cancer cell line MDA-MB-231; assay: as above
# Procedure: as §1, §2, §3, §4, §5, §6
# [4] = system: human non-small cell lung cancer cell line A549; assay: as above
# Procedure: as §1, §2, §3, §4, §5, §6
# [5] = system: human ovarian cancer cell line PA-1; assay: as above
# Procedure: as §1, §2, §3, §4, §5, §6
# [6] = system: human ovarian cancer cell line OVCAR3; assay: Test 1 of anti-proliferative activity against tumor cells (Cell-Titer Glo)
# Procedure: (§7) Cell culture: HCT116 cells and SKBR3 cells were cultured in McCoy's 5a medium containing 10% fetal bovine serum+1% penicillin-streptomycin at 37° C. and 5% CO2, and OVCAR3 cells were cultured in 1640 medium containing 20% fetal bovine serum+2 μg/mL bovine insulin+1% penicillin-streptomycin at 37° C. and 5% CO2. Cells in logarithmic growth phase were suitable for the experiment.
# (§8) Detection of cell proliferation activity: The inhibitory activity of the compounds on the proliferation of the three cell lines HCT116, SKBR3 and OVCAR3 was detected using Cell-Titer Glo reagent. HCT116 cells (1500 cells per well), SKBR3 cells (3000 cells per well) and OVCAR3 cells (5000 cells per well) were seeded in 96-well plates and cultured at 37° C. and 5% CO2 for 24 h. The solution of the compound to be tested (the compound was dissolved in DMSO with the concentration of the compound being 1 mM, then the compound was diluted to 3 μM with DMSO, with 3-fold dilution and a total of 9 concentrations, and 10 μL of the prepared compound solution was transferred to a 96-well plate with the final concentration of 0-300 nM) was added. The cells were placed at 37° C. and 5% CO2 for further culture. HCT116 cells were cultured for 3 days, and SKBR3 cells and OVCAR3 cells were cultured for 5 days. The cell viability was detected by adding Cell-Titer Glo reagent.
# as §3, §4, §5, §6
# [7] = system: Human colorectal cancer cell line HCT116; assay: as above
# Procedure: as §7, §8, §3, §4, §5, §6
# [8] = system: human breast cancer cell line SKBR3; assay: as above
# Procedure: as §7, §8, §3, §4, §5, §6
# [9] = Homo sapiens, SK-OV-3, 120 h, read-out: SK-OV-3 Anti-proliferative activity IC50 (nM)
# [10] = Homo sapiens, MDA-MB-231, 120 h, read-out: MDA-MB-231 Anti-proliferative activity IC50 (nM)
# [11] = Homo sapiens, A549, 120 h, read-out: A549 Anti-proliferative activity IC50 (nM), A549 cells, 5 days, Cell-Titer Glo
# [12] = Homo sapiens, PA-1, 120 h, read-out: PA-1 Anti-proliferative activity IC50 (nM), PA-1 cells, 5 days, Cell-Titer Glo
# [13] = Homo sapiens, OVCAR-3, 120 h, read-out: OVCAR3 Anti-proliferative activity IC50 (nM)
# [14] = Homo sapiens, HCT-116, 72 h, read-out: HCT116 Anti-proliferative activity IC50 (nM), HCT116 cells, cultured 3 days with compound, Cell-Titer Glo
# [15] = Homo sapiens, SK-OV-3, 120 h, SK-OV-3 cells, 5 days, Cell-Titer Glo, read-out: SK-OV-3 Anti-proliferative activity IC50
# [16] = Homo sapiens, MDA-MB-231, 120 h, MDA-MB-231 cells, 5 days, Cell-Titer Glo, read-out: MDA-MB-231 Anti-proliferative activity IC50
# [17] = Homo sapiens, A549, 120 h, A549 cells, 5 days, Cell-Titer Glo, read-out: A549 Anti-proliferative activity IC50
# [18] = Homo sapiens, PA-1, 120 h, PA-1 cells, 5 days, Cell-Titer Glo, read-out: PA-1 Anti-proliferative activity IC50
# [19] = Homo sapiens, OVCAR-3, 120 h, OVCAR3 cells, cultured 5 days with compound, Cell-Titer Glo, read-out: OVCAR3 Anti-proliferative activity IC50
# [20] = Homo sapiens, SK-BR-3, 120 h, SKBR3 cells, cultured 5 days with compound, Cell-Titer Glo, read-out: SKBR3 Anti-proliferative activity IC50
Structure (SMILES),"IC50 [2, 9] [nM]","IC50 [3, 10] [nM]","IC50 [4, 11] [nM]","IC50 [5, 12] [nM]","IC50 [6, 13] [nM]","IC50 [7, 14] [nM]","IC50 [2, 15] [nM]","IC50 [3, 16] [nM]","IC50 [4, 17] [nM]","IC50 [5, 18] [nM]","IC50 [6, 19] [nM]","IC50 [8, 20] [nM]",further results
"CC[C@@]1(O)C(=O)OCc2c1cc1n(c2=O)Cc2c-1nc1cc3c(c(Cl)c1c2CNC(=O)CO)OCO3 [Compound 31, (S)-N-((15-chloro-7-ethyl-7-hydroxy-8,11-dioxo-7,8,11,13-tetrahydro-10H-[1,3]dioxolo[4,5-g]pyrano[3′,4′:6,7]indolizino[1,2-b]quinolin-14-yl)methyl)-2-hydroxyacetamide]",12.3,13.5,15.9,1.7,0.2,1.2,,,,,,,IC50 [1]: 4 nM
"CC[C@@]1(O)C(=O)OCc2c1cc1n(c2=O)Cc2c-1nc1cc3c(c(F)c1c2CN)OCO3 [Compound 35, (S)-14-(aminomethyl)-7-ethyl-15-fluoro-7-hydroxy-10,13-dihydro-11H-[1,3]dioxolo[4,5-g]pyrano[3′,4′:6,7]indolizino[1,2-b]quinoline-8,11(7H)-dione]",,,,0.8,0.9,,,,,,,,
"CC[C@@]1(O)C(=O)OCc2c1cc1n(c2=O)Cc2c-1nc1cc3c(c(F)c1c2CNC(=O)C(O)C1CC1)OCO3 (stereo partly drawn) [Compound 37, 2-cyclopropyl-N-(((S)-7-ethyl-15-fluoro-7-hydroxy-8,11-dioxo-7,8,11,13-tetrahydro-10H-[1,3]dioxolo[4,5-g]pyrano[3′,4′:6,7]indolizino [1,2-b]quinolin-14-yl)methyl)-2-hydroxyacetamide]",3.5,23.9,19.6,0.9,1.2,8.1,,,,,,,"IC50 ([8]; Homo sapiens, SK-BR-3, 120 h, read-out: SKBR3 Anti-proliferative activity IC50 (nM), SKBR3 cells, cultured 5 days with compound, Cell-Titer Glo): 3.5 nM"
"CC[C@@]1(O)C(=O)OCc2c1cc1n(c2=O)Cc2c-1nc1cc3c(c(F)c1c2CNC(=O)[C@@H](O)C1CC1)OCO3 [Compound 37-P2, 2-cyclopropyl-N-(((S)-7-ethyl-15-fluoro-7-hydroxy-8,11-dioxo-7,8,11,13-tetrahydro-10H-[1,3]dioxolo[4,5-g]pyrano[3′,4′:6,7]indolizino [1,2-b]quinolin-14-yl)methyl)-2-hydroxyacetamide]",,,,,,,3,25.9,16.1,1.1,1.8,3.6,
"[2H]C1([2H])Oc2cc3nc4c(c(CNC(=O)[C@@H](O)C5CC5)c3cc2O1)Cn1c-4cc2c(c1=O)COC(=O)[C@]2(O)CC [Compound 39-P1, 2-cyclopropyl-N-(((S)-7-ethyl-7-hydroxy-8,11-dioxo-7,8,11,13-tetrahydro-10H-[1,3]dioxolo[4,5-g]pyrano[3′,4′:6,7]indolizino[1,2-b]quinolin-14-yl-2,2-d2)methyl)-2-hydroxyacetamide]",,,,,,,1.9,15.6,13.9,0.9,0.6,1.9,"IC50 ([7]; Homo sapiens, HCT-116, 72 h, HCT116 cells, cultured 3 days with compound, Cell-Titer Glo, read-out: HCT116 Anti-proliferative activity IC50): 4.6 nM"
"[2H]C1([2H])Oc2cc3nc4c(c(CNC(=O)[C@@H](O)C5CC5)c3cc2O1)Cn1c-4cc2c(c1=O)COC(=O)[C@]2(O)CC [Compound 39-P2, 2-cyclopropyl-N-(((S)-7-ethyl-7-hydroxy-8,11-dioxo-7,8,11,13-tetrahydro-10H-[1,3]dioxolo[4,5-g]pyrano[3′,4′:6,7]indolizino[1,2-b]quinolin-14-yl-2,2-d2)methyl)-2-hydroxyacetamide]",,,,,,,,,,,,,"IC50 ([2]; SK-OV-3 cells, 5 days, Cell-Titer Glo, read-out: SK-OV-3 Anti-proliferative activity IC50): 2.1 nM; IC50 ([3]; MDA-MB-231 cells, 5 days, Cell-Titer Glo, read-out: MDA-MB-231 Anti-proliferative activity IC50): 23.2 nM; IC50 ([4]; A549 cells, 5 days, Cell-Titer Glo, read-out: A549 Anti-proliferative activity IC50): 15.7 nM; IC50 ([5]; PA-1 cells, 5 days, Cell-Titer Glo, read-out: PA-1 Anti-proliferative activity IC50): 1.2 nM; IC50 ([6]; OVCAR3 cells, cultured 5 days with compound, Cell-Titer Glo, read-out: OVCAR3 Anti-proliferative activity IC50): 1 nM; IC50 ([7]; HCT116 cells, cultured 3 days with compound, Cell-Titer Glo, read-out: HCT116 Anti-proliferative activity IC50): 6.5 nM; IC50 ([8]; SKBR3 cells, cultured 5 days with compound, Cell-Titer Glo, read-out: SKBR3 Anti-proliferative activity IC50): 2.9 nM"

# — US20250270227A1, “CAMPTOTHECIN DERIVATIVE, AND PHARMACEUTICAL COMPOSITION AND USE THEREOF” (SIMCERE ZAIMING PHARMACEUTICAL CO., LTD., priority 2021, published 2025)
